Source: patent publication US12213485B2, “Synergistic methods of using benzoxaborole compounds and preservative gases as an antimicrobial for crops” (AGROFRESH INC., priority 2016, dated 2025)

How the values were obtained:
[1] = test system: Botrytis cinerea (BOTRCI) on table grapes; test: In vivo disease severity on wound-inoculated table grapes, benzoxaborole and CO2 chamber treatment
Description: (§1) The following experiments were used to determine synergy between benzoxaborole Compounds A, B, and/or C and preservative gases, such as carbon dioxide (CO2) and sulfur dioxide (SO2). Specific rates or any other unique conditions are noted within the corresponding results tables. Each experiment comprised an air-tight 36 liter (L) chamber (Fisher Scientific, P/N: 08-642-23C), fitted with a bulkhead septum port (Swagelok, P/N: SS-400-61, Solon, OH) used for treatment delivery, as well as for monitoring (using needle extraction) carbon dioxide (CO2), sulfur dioxide (SO2), oxygen (O2) or other headspace samples. A variable speed fan (Thermaltake, Mobile Fan II, P/N: A1888, Taipei City, Taiwan) set to low was also used to circulate the headspace atmosphere.
(§2) Similarly, table grape fruits were also tested in vivo. More specifically, 16-20 table grapes per repetition were washed and inoculated with pathogens (as described above for the strawberries). However, an ethanol-sterilized push pin, rather than a T15 screwdriver, was used to wound the stem-end of the grapes. The grapes were inoculated in the wound, and then arranged inside a 1-pint clamshell.
(§3) For treatment, the inoculated agar plates and clamshells containing fruits (e.g., strawberries and grapes) were placed inside a 36 L experimental chamber unit, which was then sealed prior to commencement of compound treatments. The chamber remained sealed throughout the duration of the experiment except for addition of treatment to the chamber, and post-treatment ventilation.
(§4) Benzoxaborole Compound A or Compound B was dissolved in acetone and dispensed onto a 60 mm Whatman #1 filter paper disk using a pipette. The acetone was permitted to evaporate for five minutes before the disk was placed on a watch glass in each chamber.
(§5) A 12% CO2 headspace treatment was then established in the chamber by permitting 10 grams (g) of crushed dry ice placed in a weigh boat in the chamber to evaporate in the sealed chamber. However, the bulkhead port of the chamber was loosened to permit the release of internal pressure. Optionally, a fan was used during the initial hours of treatment (i.e., up to about 6 hours of treatment) to ensure uniform treatment exposure of fruits and plates.
(§6) Untreated controls and CO2 treated chambers contained an acetone-treated disk with similar evaporation for five minutes. CO2 and O2 levels in the chamber were monitored using a handheld gas detector (Dansensor Checkpoint II; P/N 600111, Ringsted, Denmark). Temperature and relative humidity were also monitored within the chamber using data loggers (Onset HOBO; P/N U12-013, Bourne, MA).
(§7) The chamber for all in vitro and in vivo experiments was held at room temperature (i.e., from about 21° C. to about 23° C.) typically for about 3.5 days (i.e., about 84 hours) of treatment exposure. Chambers were then vented. After an additional 2-3 days with the chamber at room temperature, post-treatment radial growth (in mm) of each in vitro pathogen (see Examples 1-7, Tables 1-7) was measured on the inoculated plates using electronic calipers (Mitutoyo, P/N: CD-6-CX, Aurora, IL). In addition, the point of inoculation on fruits was assessed for indication of in vivo disease incidence (e.g., yes or no) and severity of disease incidence (see Examples 8-16, Tables 8-16). Disease severity was rated on a scale ranging from 0 to 4, where “0” indicated no disease severity, “1” indicated minimal disease severity, “2” indicated medium disease severity, “3” indicated high disease severity, and “4” indicated exceptionally high disease severity. […]

[2] = test system: Penicillium expansum (PENIEX) on table grapes; test: as above
Description: as §1, §2, §3, §4, §5, §6, §7

[3] = test system: Mucor piriformis (MUCOPI) on strawberries; test: In vivo disease severity on wound-inoculated strawberries, benzoxaborole and CO2 chamber treatment
Description: as §1
For in vivo experiments, eight strawberry fruits per repetition were surface sterilized with a 70% ethanol solution. After sterilization, the strawberries were rinsed twice with deionized water. Each strawberry fruit was wounded using a T15 screwdriver tip to a uniform depth of eight mm (8 mm). Each fruit wound was inoculated with 20 μL of 1×10^5 spores/ml pathogen spore suspension of B. cinerea or M. piriformis. The strawberries were then placed with the stem facing downwards inside a 1-pound strawberry clamshell.
as §3, §4, §5, §6, §7

## OB1OCc2cc(F)ccc21 [Compound A]
[1]; Table 15, compound 0.035 mg/L + 12% CO2, Colby equation E=x+y−x*y/100
  Colby Calculation: 115.2
[1]; Table 15, compound 0.035 mg/L + 12% CO2, evaluated 1 day after treatment, fan continuous
  Growth (Severity, 0 to 4) Cmpd + 12% CO2: 0.7
[1]; Table 15, compound alone 0.035 mg/L, evaluated 1 day after treatment, fan continuous
  Growth (Severity, 0 to 4) Cmpd: 0.9
[2]; Table 16, compound 0.035 mg/L + 12% CO2, Colby equation E=x+y−x*y/100
  Colby Calculation: 108.2
[2]; Table 16, compound 0.035 mg/L + 12% CO2, evaluated 1 day after treatment, fan continuous
  Growth (Severity, 0 to 4) Cmpd + 12% CO2: 1.3
[2]; Table 16, compound alone 0.035 mg/L, evaluated 1 day after treatment, fan continuous
  Growth (Severity, 0 to 4) Cmpd: 1.8
[3]; Table 10, compound 0.14 mg/L + 12% CO2, Colby equation E=x+y−x*y/100
  Colby Calculation: 106.8
[3]; Table 10, compound 0.14 mg/L + 12% CO2, evaluated 2 days after treatment, fan first 6 hours, >90% R.H.
  Growth (Severity, 0 to 4) Cmpd + 12% CO2: 0.2
[3]; Table 10, compound alone 0.14 mg/L, evaluated 2 days after treatment, fan first 6 hours, >90% R.H.
  Growth (Severity, 0 to 4) Cmpd: 0.5
